Data: ChEMBL document CHEMBL3431459, “Roche carnitine palmitoyltransferase modulator screening data (supplementary data associated with the publication CHEMBL2216752)”
≈ marks a conversion by molar mass, not a printed value.

Assays:
[1] = molecular target: T1, Carnitine O-palmitoyltransferase 1, muscle isoform (Homo sapiens, UniProt Q92523); assay: SUPPLEMENTARY: Inhibition of Carnitine palmitoyltransferase 1, muscle isoform; parameters: species or system Muscle tissue
T1 sequence (Q92523 whole entry): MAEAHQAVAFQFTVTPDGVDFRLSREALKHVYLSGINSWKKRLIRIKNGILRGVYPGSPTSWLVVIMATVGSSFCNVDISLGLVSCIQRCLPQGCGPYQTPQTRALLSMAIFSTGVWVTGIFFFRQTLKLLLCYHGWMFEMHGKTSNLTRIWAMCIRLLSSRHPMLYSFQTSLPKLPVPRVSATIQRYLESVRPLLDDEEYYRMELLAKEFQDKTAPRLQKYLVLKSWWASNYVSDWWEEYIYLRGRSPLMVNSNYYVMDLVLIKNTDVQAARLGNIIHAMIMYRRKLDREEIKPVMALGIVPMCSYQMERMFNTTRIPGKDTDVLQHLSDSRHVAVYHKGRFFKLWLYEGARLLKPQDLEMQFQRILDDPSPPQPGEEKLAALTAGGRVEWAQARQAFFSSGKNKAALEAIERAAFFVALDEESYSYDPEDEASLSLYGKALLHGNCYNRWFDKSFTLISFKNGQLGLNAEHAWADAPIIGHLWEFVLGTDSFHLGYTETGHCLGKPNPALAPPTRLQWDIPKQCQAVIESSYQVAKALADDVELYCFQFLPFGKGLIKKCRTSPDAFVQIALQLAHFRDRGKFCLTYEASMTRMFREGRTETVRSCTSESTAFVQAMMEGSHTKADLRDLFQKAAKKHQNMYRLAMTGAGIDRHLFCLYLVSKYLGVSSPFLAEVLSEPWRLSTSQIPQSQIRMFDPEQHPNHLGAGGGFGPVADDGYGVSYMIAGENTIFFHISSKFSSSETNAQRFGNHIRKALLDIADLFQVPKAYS

[2] = SUPPLEMENTARY: Lyophilisation Solubility Assay (LYSA); type: physicochemical; details: read-out: Kinetic_solubility
[3] = molecular target: T2, Carnitine O-palmitoyltransferase 1, liver isoform (Homo sapiens, UniProt P50416); assay: (§1) SUPPLEMENTARY: Inhibition of Carnitine palmitoyltransferase 1, liver isoform
T2 sequence (P50416 whole entry): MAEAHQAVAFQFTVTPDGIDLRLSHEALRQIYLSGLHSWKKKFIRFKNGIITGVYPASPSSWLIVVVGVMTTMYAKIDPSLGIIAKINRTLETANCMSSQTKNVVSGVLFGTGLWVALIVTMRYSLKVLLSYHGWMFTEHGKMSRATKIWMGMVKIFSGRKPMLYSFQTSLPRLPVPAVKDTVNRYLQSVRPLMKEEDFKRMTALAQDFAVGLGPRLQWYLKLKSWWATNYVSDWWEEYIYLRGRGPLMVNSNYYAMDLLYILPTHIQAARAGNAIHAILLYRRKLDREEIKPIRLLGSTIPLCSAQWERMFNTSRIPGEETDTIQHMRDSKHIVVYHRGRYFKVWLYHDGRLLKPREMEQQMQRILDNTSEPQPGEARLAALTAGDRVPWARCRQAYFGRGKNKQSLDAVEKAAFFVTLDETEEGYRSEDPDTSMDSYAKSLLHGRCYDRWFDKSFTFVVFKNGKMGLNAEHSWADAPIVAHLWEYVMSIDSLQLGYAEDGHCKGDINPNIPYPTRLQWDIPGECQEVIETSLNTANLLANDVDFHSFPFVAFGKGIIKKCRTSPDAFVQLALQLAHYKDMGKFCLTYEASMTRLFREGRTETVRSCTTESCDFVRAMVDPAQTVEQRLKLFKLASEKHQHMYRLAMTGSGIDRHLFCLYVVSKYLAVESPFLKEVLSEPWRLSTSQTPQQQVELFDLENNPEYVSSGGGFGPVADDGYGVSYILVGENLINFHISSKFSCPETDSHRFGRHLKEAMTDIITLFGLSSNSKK

[4] = molecular target: T3, Carnitine O-palmitoyltransferase 1, liver isoform (Rattus norvegicus, UniProt P32198); assay: as §1
T3 sequence (P32198 whole entry): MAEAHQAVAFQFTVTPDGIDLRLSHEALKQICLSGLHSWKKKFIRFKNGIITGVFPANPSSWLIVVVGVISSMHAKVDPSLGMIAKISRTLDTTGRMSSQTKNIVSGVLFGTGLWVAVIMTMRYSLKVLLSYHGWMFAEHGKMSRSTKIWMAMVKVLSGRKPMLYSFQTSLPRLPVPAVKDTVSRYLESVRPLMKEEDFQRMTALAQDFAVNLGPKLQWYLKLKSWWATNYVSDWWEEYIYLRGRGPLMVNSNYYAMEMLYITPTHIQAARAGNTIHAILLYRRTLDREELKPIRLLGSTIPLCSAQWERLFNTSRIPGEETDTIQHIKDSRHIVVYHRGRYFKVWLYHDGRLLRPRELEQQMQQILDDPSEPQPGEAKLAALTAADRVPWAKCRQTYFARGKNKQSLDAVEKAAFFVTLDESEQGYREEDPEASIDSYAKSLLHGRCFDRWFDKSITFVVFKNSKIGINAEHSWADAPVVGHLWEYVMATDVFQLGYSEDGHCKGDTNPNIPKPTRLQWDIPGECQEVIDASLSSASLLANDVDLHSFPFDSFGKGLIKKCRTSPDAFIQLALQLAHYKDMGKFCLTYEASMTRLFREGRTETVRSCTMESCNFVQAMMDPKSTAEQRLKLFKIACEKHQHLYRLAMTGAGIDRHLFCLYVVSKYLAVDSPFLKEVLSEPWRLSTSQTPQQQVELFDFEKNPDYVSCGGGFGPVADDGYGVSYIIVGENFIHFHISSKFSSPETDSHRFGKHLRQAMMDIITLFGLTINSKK

[5] = SUPPLEMENTARY: PAMPA permeability assay; type: physicochemical; details: read-out: Permeability
[6] = molecular target: T4, Carnitine O-palmitoyltransferase 2, mitochondrial (Rattus norvegicus, UniProt P18886); assay: (§2) SUPPLEMENTARY: Inhibition of Carnitine palmitoyltransferase 2
T4 sequence (P18886 whole entry): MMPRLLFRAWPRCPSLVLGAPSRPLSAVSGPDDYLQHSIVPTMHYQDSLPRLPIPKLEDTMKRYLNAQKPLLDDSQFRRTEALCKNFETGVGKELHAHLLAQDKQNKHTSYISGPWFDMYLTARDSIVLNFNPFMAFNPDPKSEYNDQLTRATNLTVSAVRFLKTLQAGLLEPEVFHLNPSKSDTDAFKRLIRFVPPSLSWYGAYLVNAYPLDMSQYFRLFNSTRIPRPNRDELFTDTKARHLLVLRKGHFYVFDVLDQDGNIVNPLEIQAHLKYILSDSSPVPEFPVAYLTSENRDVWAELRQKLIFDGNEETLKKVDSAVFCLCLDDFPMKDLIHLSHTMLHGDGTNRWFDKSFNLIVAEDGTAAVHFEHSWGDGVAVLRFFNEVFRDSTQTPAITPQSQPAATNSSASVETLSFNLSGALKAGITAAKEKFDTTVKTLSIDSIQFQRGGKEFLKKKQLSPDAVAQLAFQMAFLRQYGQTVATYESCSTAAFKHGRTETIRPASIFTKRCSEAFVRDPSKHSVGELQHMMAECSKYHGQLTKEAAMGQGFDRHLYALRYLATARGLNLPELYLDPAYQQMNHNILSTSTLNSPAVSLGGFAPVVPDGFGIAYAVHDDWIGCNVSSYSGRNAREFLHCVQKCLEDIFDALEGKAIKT

[7] = molecular target: T5, Carnitine O-palmitoyltransferase 2, mitochondrial (Homo sapiens, UniProt P23786); assay: as §2
T5 sequence (P23786 whole entry): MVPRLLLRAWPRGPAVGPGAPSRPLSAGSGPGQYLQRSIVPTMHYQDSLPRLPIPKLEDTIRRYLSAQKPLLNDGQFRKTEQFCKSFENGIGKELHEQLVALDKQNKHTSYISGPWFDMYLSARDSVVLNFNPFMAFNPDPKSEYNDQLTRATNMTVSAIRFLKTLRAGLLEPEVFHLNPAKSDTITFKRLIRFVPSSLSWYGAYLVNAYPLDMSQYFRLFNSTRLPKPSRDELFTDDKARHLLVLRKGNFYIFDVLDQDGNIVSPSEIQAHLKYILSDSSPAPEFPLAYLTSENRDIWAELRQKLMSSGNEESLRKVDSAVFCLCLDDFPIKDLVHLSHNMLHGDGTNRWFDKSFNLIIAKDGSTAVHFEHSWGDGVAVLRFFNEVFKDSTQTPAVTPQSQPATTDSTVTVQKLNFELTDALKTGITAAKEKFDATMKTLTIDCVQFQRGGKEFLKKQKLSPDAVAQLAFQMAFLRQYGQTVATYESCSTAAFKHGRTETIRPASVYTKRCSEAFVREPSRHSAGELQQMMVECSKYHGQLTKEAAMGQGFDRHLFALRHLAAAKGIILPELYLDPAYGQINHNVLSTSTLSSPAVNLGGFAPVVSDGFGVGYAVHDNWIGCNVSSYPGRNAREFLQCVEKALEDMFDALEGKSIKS

Row | SMILES | IC50 [1] [µM] | solubility kinetic [2] [µg/mL] | IC50 [3] [nM] | IC50 [4] [nM] | Papp [5] [×10⁻⁶ cm/s] | IC50 [6] [µM] | IC50 [7] [µM]
1 | COc1ccc(Cl)cc1S(=O)(=O)N1CCc2c(C)cc(C(=O)Nc3nc(CC(=O)O)cs3)cc21 | > 100 | 249 (≈ 477 µM) | 19.3 | 12 | 2.03 | > 100 | > 100
2 | Cc1cc(C)cc(S(=O)(=O)c2nn(CC(=O)O)c3ccc(C(=O)Nc4ccccc4)cc23)c1 | 8.83 | 71 (≈ 153 µM) | 33.7 | 21.7 | 0.01 | > 100 | > 100
3 | COc1ccc(Cl)cc1S(=O)(=O)c1nn(C)c2ccc(C(=O)Nc3ccc(C(=O)O)cc3)cc12 | > 100 | 8 (≈ 16 µM) | 50 | 64.8 | 1.89 | > 100 | > 100

Next, values leading:

Row | IC50 [1] [µM] | solubility kinetic [2] [µg/mL] | IC50 [3] [nM] | IC50 [4] [nM] | Papp [5] [×10⁻⁶ cm/s] | IC50 [6] [µM] | IC50 [7] [µM] | SMILES
4 | 2.24 | 12 (≈ 24 µM) | 62.2 | 21 | 2.4 | 1.66 | 0.672 | COc1ccc(Cl)cc1S(=O)(=O)N1CC(C)c2ccc(C(=O)Nc3ccc(C(=O)O)cc3)cc21 (stereo unspecified)
5 | 11 | 13 (≈ 27.3 µM) | 123 | 148 | 1.24 | 19.6 | 1.27 | COc1ccc(Cl)cc1CN1C(=O)C2(CC2)c2ccc(C(=O)Nc3ccc(C(=O)O)cc3)cc21
6 | 19.6 | 7 (≈ 13.4 µM) | 111 | 53.4 | 4.82 | > 100 | > 100 | O=C(Nc1ccc(C(=O)O)c(F)c1)c1ccc2c(c1)N(S(=O)(=O)c1cc(Cl)cc(Cl)c1)CCC2
7 | 9 | 10 (≈ 19.1 µM) | 126 | 74.8 | 2.13 | 6.45 | 2.23 | O=C(Nc1ccc(C(=O)O)c(F)c1)c1ccc2c(c1)N(S(=O)(=O)c1cccc(C(F)(F)F)c1)CCC2
8 | 9.1 | 345 (≈ 647 µM) | 131 | 134 | 2.15 | 46.5 | 28.1 | COc1ccc(Cl)cc1S(=O)(=O)N1CCCCc2ccc(C(=O)Nc3ccc(C(=O)O)c(F)c3)cc21
